The values that follow come from paper PMC6969523, “Corazonin signaling integrates energy homeostasis and lunar phase to regulate aspects of growth and sexual maturation in Platynereis” (Proceedings of the National Academy of Sciences of the …, 2019).

The target in one series is T1, GnRHR1/AKHR1 (Platynereis dumerilii, UniProt A0A6B9MSD4).
T1 sequence (A0A6B9MSD4 1-359): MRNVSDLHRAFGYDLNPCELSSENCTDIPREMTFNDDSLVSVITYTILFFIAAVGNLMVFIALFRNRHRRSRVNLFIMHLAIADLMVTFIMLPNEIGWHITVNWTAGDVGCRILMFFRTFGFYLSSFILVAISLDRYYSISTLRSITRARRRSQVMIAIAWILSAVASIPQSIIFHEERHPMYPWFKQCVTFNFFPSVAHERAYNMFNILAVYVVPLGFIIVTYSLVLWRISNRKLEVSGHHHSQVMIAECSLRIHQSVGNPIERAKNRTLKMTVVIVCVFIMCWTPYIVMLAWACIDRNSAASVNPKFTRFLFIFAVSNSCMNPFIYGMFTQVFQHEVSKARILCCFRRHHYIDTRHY
The series is described as follows: Calcium mobilization (deorphanization) assay, GnRHR1/AKHR1. The class given is cell-based. The text has this: (§1) We next took advantage of a cell culture-based calcium mobilization assay ([59]) for assessing the ligand–receptor interactions of these receptors. […] Given that a receptor for GnRHL3 was still missing, we tested ligand–receptor interactions of all identified Platynereis GnRH-like receptors. […] As we presently cannot exclude the existence of an additional GnRH-like receptor in Platynereis that might be activated by GnRHL3 at lower concentrations, we here use the more generic name (GnRHL3) for this ligand.
(§2) CrzRb was identified and initially deorphanized in ref. [54]. GnRHR1/AKHR1 and GnRHR2/AKHR2, as well as the second isoform of CrzR (CrzRa) were identified using an in silico approach and confirmed by cloning and sequencing. To facilitate deorphanization, cDNA of these receptors was amplified from laboratory Platynereis strains and cloned into the pcDNA3.1 (+) vector. […] Receptor activation was measured by monitoring calcium responses for 30 s on a Mithras LB 940 luminometer (Berthold Technologies). Percentage activation values of receptors were plotted for each receptor, and half maximal effective concentrations (EC50 value) were calculated using a computerized nonlinear regression analysis with a sigmoidal dose–response equation (GraphPad PRISM software). […]
(Calcium flux is commonly read through the fluorescence of an indicator in the cells.)

The target of the next series is T2, GnRHR2/AKHR2 (Platynereis dumerilii, UniProt A0A6B9MRA0).
T2 sequence (A0A6B9MRA0 1-355): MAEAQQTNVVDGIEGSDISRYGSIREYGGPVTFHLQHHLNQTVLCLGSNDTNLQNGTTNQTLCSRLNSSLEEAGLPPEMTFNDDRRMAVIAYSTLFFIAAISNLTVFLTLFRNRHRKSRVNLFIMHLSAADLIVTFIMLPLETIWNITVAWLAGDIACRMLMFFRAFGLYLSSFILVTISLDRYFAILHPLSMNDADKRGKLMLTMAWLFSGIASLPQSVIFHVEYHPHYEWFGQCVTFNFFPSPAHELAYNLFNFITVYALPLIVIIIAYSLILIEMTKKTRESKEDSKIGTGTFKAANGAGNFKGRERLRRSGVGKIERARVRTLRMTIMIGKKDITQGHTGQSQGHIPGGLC
The series is described as follows: Calcium mobilization (deorphanization) assay, GnRHR2/AKHR2. The series is classed as cell-based.
Source text: as §1, §2

For series [1], the system named is GnRH-superfamily receptors. The series can be described thus: Activation of GnRH-superfamily receptors in vitro. The series is classed as cell-based, Platynereis dumerilii.
Source text: as §1, §2

A further series addresses T3, CrzRa (Platynereis dumerilii, UniProt A0A6B9MK47).
T3 sequence (A0A6B9MK47 1-288): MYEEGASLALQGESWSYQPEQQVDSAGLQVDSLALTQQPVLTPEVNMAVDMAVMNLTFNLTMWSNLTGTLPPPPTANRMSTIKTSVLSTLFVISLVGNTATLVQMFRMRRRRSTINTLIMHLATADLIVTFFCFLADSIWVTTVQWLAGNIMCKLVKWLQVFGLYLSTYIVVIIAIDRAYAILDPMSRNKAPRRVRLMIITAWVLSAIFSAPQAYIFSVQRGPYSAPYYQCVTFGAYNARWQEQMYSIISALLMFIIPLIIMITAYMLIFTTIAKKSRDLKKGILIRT
The series is described as follows: Calcium mobilization (deorphanization) assay, CrzRa. The class given is cell-based.
Source text: as §1, §2

Another series has as its target T4, CrzRb (Platynereis dumerilii, UniProt A0A291FE86).
T4 sequence (A0A291FE86 1-422): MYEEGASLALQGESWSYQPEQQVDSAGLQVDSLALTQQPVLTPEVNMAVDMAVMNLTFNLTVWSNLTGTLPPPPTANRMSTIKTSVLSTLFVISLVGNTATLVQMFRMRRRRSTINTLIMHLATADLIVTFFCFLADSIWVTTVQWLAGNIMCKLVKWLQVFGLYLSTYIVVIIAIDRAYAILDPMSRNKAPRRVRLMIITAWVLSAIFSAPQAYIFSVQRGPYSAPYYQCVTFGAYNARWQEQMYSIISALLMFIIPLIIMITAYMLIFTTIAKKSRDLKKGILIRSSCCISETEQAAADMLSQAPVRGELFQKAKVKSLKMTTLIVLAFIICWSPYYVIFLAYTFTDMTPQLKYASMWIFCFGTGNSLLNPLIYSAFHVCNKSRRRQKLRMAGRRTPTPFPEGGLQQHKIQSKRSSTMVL
The series can be described thus: Calcium mobilization (deorphanization) assay, CrzRb. The series is classed as cell-based.
Source text: as §1, §2

Another series deals with CrzR. The series is described as follows: Ligand-receptor interaction, Corazonin receptor (isoform not given). The series is classed as cell-based, Platynereis dumerilii.
Source text: as §1, §2

Another series deals with honeybee larvae. The conditions noted are these: fed with swainsonine; ref SI 20; cited from earlier work. The text has this: Cons e que nce s of lys os oma l α-ma n n o si d as e im p a i r me n t s i n o t h e r s pe ci es One of the molecular consequences of knocking out the Platynereis crz1/gnrhl1 gene that we reveal in this study is the strong reduction of lysosomal α-mannosidase. In huma ...

Another series deals with glucose production. The conditions noted are these: vertebrate glucagon; glycogenolysis and gluconeogenesis; ref [38], [66], [77]–[79]; cited from earlier work. An excerpt: The focus on the metabolic consequences of CRZ/GnRHL provides an interesting perspective for the cross-comparison of corazonin signaling with other signaling systems. The proposed role of worm CRZ1 in promoting the expression of α-glucosidases and pepck is reminiscent of the action of the GnRH-like AKH peptide in flies but also the role of vertebrate glucagon, an independent factor that has been discussed as a functional analog of insect AKH signaling ([38], [66], [77]–[79]). […] Thus, CRZ1/GnRHL1 see ...

The test system of the next series is female mice. The settings on record: female mice injected with leptin; ref [50]–[52]; cited from earlier work. The text has this:
In turn, strong interconnections between the GnRH system and metabolism can also be found in several vertebrates. […] In mammals, GnRH release is also regulated by the orexigenic neuropeptide Y (NPY) and kisspeptin, which relays both sex steroid and leptin signaling to GnRH neurons ([49]). In line with this, a high-fat diet increases hypothalamic gnrh expression in prepubescent gilts ([50]), where this treatm ...

Where [2] appears, read: CHO cells stably expressing apo-aequorin and human Gα16, transient transfection, calcium response 30 s, luminometer, nonlinear regression, at least 4 replicates in at least 2 independent experiments.
The mark [3] stands for this setting: CHO cells, all receptors tested with all ligands.
Setting [4] is: CHO cells, all receptor-ligand combinations tested, GnRHL3 at higher concentration (sub-micromolar to micromolar range).

“Also recorded” adds a separate entry of the source. Non-standard residues stand in square brackets, D forms with d. Residues, ends and D or L forms follow the SMILES beside them. pGlu = O=C1CC[C@@H](C(=O)O)N1

For orientation: EC50 means the concentration giving half of the maximal effect. For the molecule `CC(C)C[C@H](NC(=O)[C@H](CO)NC(=O)[C@H](CCC(N)=O)NC(=O)[C@@H](NC(=O)[C@H](CC(C)C)NC(=O)[C@@H]1CCC(=O)N1)[C@@H](C)O)C(=O)NCC(=O)N[C@@H](Cc1c[nH]c2ccccc12)C(=O)NCC(=O)N[C@@H](CO)C(=O)N[C@@H](C)C(=O)NCC(=O)N[C@@H](CO)C(=O)N[C@@H](CO)C(N)=O` [GnRH2/GnRHL4] ([pGlu]LTQSLGWGSAGSS-NH2), the results for the EC50 on GnRHR1/AKHR1 (setting [2]) and on GnRHR2/AKHR2 (setting [2]) were 11.5 nM and 200 nM, respectively. Moreover, at GnRHR1/AKHR1 (setting [3]), the “activation of GnRHR1/AKHR1” value is on record as “specifically activated; also recorded: respond only to a single ligand”. Besides, the “activation of GnRHR2/AKHR2” value on GnRHR2/AKHR2 (setting [3]) is reported as “specifically activated; also recorded: respond only to a single ligand”. Further, the “activation of GnRH-superfamily receptors in vitro” value in [1] is “activate GnRH-superfamily receptors in vitro”.

Regarding `CC(C)C[C@H](NC(=O)[C@H](CO)NC(=O)[C@H](Cc1ccccc1)NC(=O)[C@H](CO)NC(=O)[C@H](Cc1ccccc1)NC(=O)[C@@H]1CCC(=O)N1)C(=O)N1CCC[C@H]1C(=O)NCC(=O)N[C@@H](CCCCN)C(=O)N[C@@H](Cc1c[nH]c2ccccc12)C(=O)NCC(=O)N[C@@H](CC(N)=O)C(N)=O` [GnRHL3] ([pGlu]FSFSLPGKWGN-NH2), the EC50 at CrzRa (setting [2]) turned out to be 500 nM; on CrzRb (setting [2]), 5800 nM. The “activation of CrzRa” value at CrzRa (setting [4]) is given as “also respond; also recorded: at higher concentration”. The “activation of CrzRb” value at CrzRb (setting [4]) is “also respond; also recorded: at higher concentration”. Besides, the “EC50 levels for CrzR activation compared with the other CRZ ligands” value on CrzR (GnRHL3-CrzR activation assay versus other CRZ ligands) is given as “significantly higher”. Besides, the “activation of CrzR” value in the series on CrzR (ligand-receptor interaction analyses, isoform not stated) is reported as “activated”. In series [1], the “activation of GnRH-superfamily receptors in vitro” value is “activate GnRH-superfamily receptors in vitro”.

With `O[C@H]1[C@H]2[C@H](O)CCCN2C[C@H]1O` [swainsonine], the “development of honeybee larvae” value in the series with honeybee larvae was “developmental delay in pupal metamorphosis”.

Regarding glucagon, the “glucose production” value with glucose production was “increased glucose production”.

B1: leptin: leptin, injected in female mice (protein, UniProt P41160 22-167, looked up)
Leptin: VPIQKVQDDTKTLIKTIVTRINDISHTQSVSAKQRVTGLDFIPGLHPILSLSKMDQTLAVYQQVLTSLPSQNVLQIANDLENLRDLLHLLAFSKSCSLPQTSGLQKPESLDGVLEASLYSTEVVALSRLQGSLQDILQQLDVSPEC
Consider B1, for which the “puberty onset” value in the series with female mice is given as “advances puberty onset”.
